Source: ChEMBL document CHEMBL4842323, “Aromatic Polyketides and Hydroxamate Siderophores from a Marine-Algae-Derived Streptomyces Species” (J Nat Prod, 2021)
Where a name gives a salt, the structure may show the parent alone. The source made the active and inactive calls. The calls are words filed in the database; no cut-off is given here.

Legend:
Pseudomonas aeruginosa = assay: Antibacterial activity against Pseudomonas aeruginosa ATCC10145 assessed as inhibition of bacterial growth incubated for 12 hrs by agar dilution method; assay type: functional, organism-based
Staphylococcus aureus [1] = assay: Antibacterial activity against methicillin-resistant Staphylococcus aureus subsp. aureus ATCC43300 assessed as inhibition of bacterial growth incubated for 12 hrs by agar dilution method; assay type: functional, organism-based
Staphylococcus aureus [2] = assay: Antibacterial activity against Staphylococcus aureus ATCC6538 assessed as inhibition of bacterial growth incubated for 12 hrs by agar dilution method; assay type: functional, organism-based
Nakaseomyces glabratus = assay: Antifungal activity against Candida glabrata ATCC2001 assessed as inhibition of fungal growth incubated for 12 hrs by agar dilution method; assay type: functional, organism-based
Escherichia coli = assay: Antibacterial activity against Escherichia coli ATCC11775 assessed as inhibition of bacterial growth incubated for 12 hrs by agar dilution method; assay type: functional, organism-based
B16 = assay: Cytotoxicity against mouse B16 cells assessed as reduction in cell viability incubated for 72 hrs by MTT assay; assay type: functional, cell-based
Candida albicans = assay: Antifungal activity against Candida albicans ATCC10231 assessed as inhibition of fungal growth incubated for 12 hrs by agar dilution method; assay type: functional, organism-based
[3] = Binding affinity to Fe3+ assessed as compound-Fe3+ complex formation incubated for 3 hrs by Chrome Azurol S assay

SMILES	Activity (Pseudomonas aeruginosa)	Activity (Staphylococcus aureus [1])	Activity (Staphylococcus aureus [2])	Activity (Nakaseomyces glabratus)	Activity (Escherichia coli)	Activity (B16)	Activity (Candida albicans)	EC50 [3] [µM]
COc1cc(Cc2cccc(O)c2)oc(=O)c1	inactive	inactive	inactive	inactive	inactive	inactive	inactive	–
COc1cc(-c2c(O)cccc2-c2ccccc2)oc(=O)c1	inactive	inactive	inactive	inactive	inactive	inactive	inactive	–
CC(=O)N(O)CCCCCNC(=O)CCC(=O)N(O)CCCCCNC(=O)CCc1ccccc1	inactive	inactive	inactive	inactive	inactive	inactive	inactive	12.9
O=C1CCC(=O)N(O)CCCCCNC(=O)CCC(=O)N(O)CCCCCNC(=O)CCC(=O)N(O)CCCCCN1 [NOCARDAMINE]	inactive	inactive	inactive	inactive	inactive	inactive	inactive	22.4
COc1cc(Cc2cccc(O)c2C(=O)c2ccccc2)oc(=O)c1	inactive	inactive	inactive	inactive	inactive	inactive	inactive	–
CC(=O)N(O)CCCCCNC(=O)CCC(=O)N(O)CCCCCNC(=O)CCC(=O)N(O)CCCCCN [DEFEROXAMINE MESYLATE]	–	–	–	–	–	–	–	20.2
CC(=O)N(O)CCCCCNC(=O)CCC(=O)N(O)CCCCCNC(=O)/C=C/c1ccccc1	inactive	inactive	inactive	inactive	inactive	inactive	inactive	39.1
COc1cc([C@@H]2c3cccc(O)c3C(=O)C[C@@]2(O)Cc2ccccc2)oc(=O)c1	inactive	inactive	inactive	inactive	inactive	inactive	inactive	–
